The target in the experiment is T1, Recombinant (1-346) HPK1 (h) (Homo sapiens, UniProt Q92918).
T1 construct: Recombinant (1-346) HPK1 (h) is incubated with 8 mM MOPS pH 7.0
T1 sequence (Q92918 1-346): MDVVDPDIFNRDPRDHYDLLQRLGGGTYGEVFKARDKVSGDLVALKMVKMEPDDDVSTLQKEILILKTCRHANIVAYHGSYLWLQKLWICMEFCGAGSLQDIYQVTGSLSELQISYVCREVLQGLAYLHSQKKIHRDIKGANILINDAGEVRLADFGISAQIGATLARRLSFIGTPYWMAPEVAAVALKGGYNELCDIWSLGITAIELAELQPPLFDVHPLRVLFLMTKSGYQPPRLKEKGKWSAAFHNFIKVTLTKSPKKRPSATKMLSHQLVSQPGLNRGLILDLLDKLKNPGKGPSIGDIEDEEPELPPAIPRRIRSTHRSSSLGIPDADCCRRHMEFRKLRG
Nature of the experiment: HPK1 Human STE Kinase Enzymatic Radiometric Assay. The format is biochemical. The following applies: read-out: HPK1 IC50 nM Range*. As for the experimental part: A stock solution of 10 mM of test compound is prepared in DMSO. The compound plate was prepared by 3-fold and 9-point serial dilutions. […] The reaction is initiated by The addition of the Mg/ATP mix. After incubation for 40 minutes at RT, the reaction is stopped by the addition of phosphoric acid to a concentration of 0.5%.
The IC50 is the concentration that gives 50% inhibition. Take `Nc1nc(F)c(-c2ccc(N3CCN(CCCC(F)F)CC3)cc2)cc1-c1ccc2c(c1)CCNC2=O` [I-641, 6-(2-amino-5-(4-(4-(4,4-difluorobutyl)piperazin-1-yl)phenyl)-6-fluoropyridin-3-yl)-3,4-dihydroisoquinolin-1(2H)-one]: the IC50 lay in the range of 0.1 to 10 nM.

For `CN(C)Cc1cc(-c2cc(-c3ccc4c(c3)CCNC4=O)c(N)nc2F)c(F)cc1N1CCOCC1` [I-622, 6-(2-amino-5-(5-((dimethylamino)methyl)-2-fluoro-4-morpholinophenyl)-6-fluoropyridin-3-yl)-3,4-dihydroisoquinolin-1(2H)-one], the IC50 lay within 11 to 100 nM.

As for `Cc1nc2cc(-c3cc(-c4ccc(N5CCN(C(C)C)CC5)cc4)c(F)nc3N)ccc2c(=O)n1N` [I-465, 3-amino-7-(2-amino-6-fluoro-5-(4-(4-isopropylpiperazin-1-yl)phenyl)pyridin-3-yl)-2-methylquinazolin-4(3H)-one], the IC50 is 101 to 1000 nM.

As for `CN(C)Cc1c(N2CCOCC2)ccc(-c2cc(-c3ccc4c(c3)CCNC4=O)c(N)nc2F)c1F` [I-606, 6-(2-amino-5-(3-((dimethylamino)methyl)-2-fluoro-4-morpholinophenyl)-6-fluropyridin-3-yl)-3,4-dihydroisoquinolin-1(2H)-one], the IC50 lay in the range of 11 to 100 nM.

For the compound `Nc1nc(F)c(-c2ccc(N3CCOCC3)c(CN3CCC3)n2)cc1-c1ccc2c(c1)CCNC2=O` [I-578, 6-(6′-amino-6-(azetidin-1-ylmethyl)-2-fluoro-5-morpholino-[2,3′-bipyridin]-5′-yl)-3,4-dihydroisoquinolin-1(2H)-one], the IC50 lay in the range of 0.1 to 10 nM.

As to `Nc1nc(F)c(-c2ccc([C@]34C[C@H]3CN(C3CCC3)C4)cc2)cc1-c1ccc2c(=O)[nH]cc(F)c2c1` [I-520, 6-(2-amino-5-(4-((1S,5R)-3-cyclobutyl-3-azabicyclo[3.1.0]hexan-1-yl)phenyl)-6-fluoropyridin-3-yl)-4-fluoroisoquinolin-1(2H)-one], the IC50 lay within 0.1 to 10 nM.

`COCCN(C)Cc1nc(-c2cc(-c3ccc4c(c3)CCNC4=O)c(N)nc2F)ccc1N1CCOCC1` [I-582, 6-(6′-amino-2′-fluoro-6-(((2-methoxyethyl)(methyl)amino)methyl)-5-morpholino-[2,3′-bipyridin]-5′-yl)-3,4-dihydroisoquinolin-1(2H)-one]: the IC50 lay within 0.1 to 10 nM.

For the compound `Nc1nc(F)c(-c2ccc(N3CCOCC3)c(CN3CCCCC3)c2)cc1-c1cc2c(cc1F)C(=O)NCC2` [I-560, 6-(2-amino-6-fluoro-5-(4-morpholino-3-(piperidin-1-ylmethyl)phenyl)pyridin-3-yl)-7-fluoro-3,4-dihydroisoquinolin-1(2H)-one], the IC50 is 11 to 100 nM.

For `Nc1nc(F)c(-c2ccc(C3CCOCC3)c(CN3CCC3)n2)cc1-c1ccc2c(c1)CCNC2=O` [I-605, 6-(6′-amino-6-(azetidin-1-ylmethyl)-2′-fluoro-5-(tetrahydro-2H-pyran-4-yl)-[2,3′-bipyridin]-5′-yl)-3,4-dihydroisoquinolin-1(2H)-one], the IC50 was in the range of 0.1 to 10 nM.

Turning to `Cc1nc2cc(-c3cc(-c4ccc(N5C[C@@H](C)O[C@@H](C)C5)c(CN(C)C)c4)c(F)nc3N)ccc2c(=O)[nH]1` [I-595, 7-(2-amino-5-(3-((dimethylamino)methyl)-4-((2R,6S)-2,6-dimethylmorpholino)phenyl)-6-fluoropyridin-3-yl)-2-methylquinazolin-4(3H)-one], the IC50 was 11 to 100 nM.

For the compound `C[C@H]1CN(c2ccc(-c3cc(-c4ccc5c(c4)CCNC5=O)c(N)nc3F)cc2CN2CCC2)CCO1` [I-598, (S)-6-(2-amino-5-(3-(azetidin-1-ylmethyl)-4-(2-methylmorpholino)phenyl)-6-fluoropyridin-3-yl)-3,4-dihydroisoquinolin-1(2H)-one], the IC50 lay within 11 to 100 nM.

Regarding `CN(C)Cc1cc(-c2cc(-c3cc4c(cc3F)C(=O)NCC4)c(N)nc2F)ccc1N1CCN(C2CCCC2)CC1` [I-452, 6-(2-amino-5-(4-(4-cyclopentylpiperazin-1-yl)-3-((dimethylamino)methyl)phenyl)-6-fluoropyridin-3-yl)-7-fluoro-3,4-dihydroisoquinolin-1(2H)-one], the IC50 fell in the range of 0.1 to 10 nM.

With `CCN(C)Cc1nc(-c2cc(-c3cc4c(cc3F)C(=O)NCC4)c(N)nc2F)ccc1C1CCOCC1` [I-604, 6-(6′-amino-6-((ethyl(methyl)amino)methyl)-2′-fluoro-5-(tetrahydro-2H-pyran-4-yl)-[2,3′-bipyridin]-5′-yl)-7-fluoro-3,4-dihydroisoquinolin-1(2H)-one], the IC50 was in the range of 0.1 to 10 nM.

`Cc1nc2cc(-c3cc(-c4ccc(N5CCN(CCC(F)F)CC5)cc4)c(F)nc3N)cc(F)c2c(=O)[nH]1` [I-485, 7-(2-amino-5-(4-(4-(3,3-difluoropropyl)piperazin-1-yl)phenyl)-6-fluoropyridin-3-yl)-5-fluoro-2-methylquinazolin-4(3H)-one]: the IC50 was in the range of 11 to 100 nM.

As to `COCCN(C)Cc1nc(-c2cc(-c3cc4c(cc3F)C(=O)NCC4)c(N)nc2F)ccc1N1CCOCC1` [I-583, 6-(6′-amino-2′-fluoro-6-(((2-methoxyethyl)(methyl)amino)methyl)-5-morpholino-[2,3′-bipyridin]-5′-yl)-7-fluoro-3,4-dihydroisoquinolin-1(2H)-one], the IC50 was 0.1 to 10 nM.

As to `Cc1c[nH]c(=O)c2ccc(-c3cc(-c4ccc(N5CCOCC5)c(CN(C)C)c4)c(F)nc3N)cc12` [I-502, 6-(2-amino-5-(3-((dimethylamino)methyl)-4-morpholinophenyl)-6-fluoropyridin-3-yl)-4-methylisoquinolin-1(2H)-one], the IC50 was in the range of 0.1 to 10 nM.

Take `COC1CCN(Cc2cc(-c3cc(-c4cc5c(cc4F)C(=O)NCC5)c(N)nc3F)ccc2OCCCC(F)F)CC1` [I-527, 6-(2-amino-5-(4-(4,4-difluorobutoxy)-3-((4-methoxypiperidin-1-yl)methyl)phenyl)-6-fluoropyridin-3-yl)-7-fluoro-3,4-dihydroisoquinolin-1(2H)-one]: the IC50 is 11 to 100 nM.

Regarding `CO[C@H]1CCN(Cc2cc(-c3cc(-c4cc5c(cc4F)C(=O)NCC5)c(N)nc3F)ccc2N2CCOCC2)C1` [I-566, (S)-6-(2-amino-6-fluoro-5-(3-((3-methoxypyrrolidin-1-yl)methyl)-4-morpholinophenyl)pyridin-3-yl)-7-fluoro-3,4-dihydroisoquinolin-1(2H)-one], the IC50 lay within 0.1 to 10 nM.

In the case of `Cc1nc2cc(-c3cc(-c4ccc([C@]56C[C@H]5CN(C)C6)cc4)c(F)nc3N)cc(F)c2c(=O)[nH]1` [I-469, 7-(2-amino-6-fluoro-5-(4-((1S,5R)-3-methyl-3-azabicyclo[3.1.0]hexan-1-yl)phenyl)pyridin-3-yl)-5-fluoro-2-methylquinazolin-4(3H)-one], the IC50 lay in the range of 11 to 100 nM.

Take `COc1ccc(-c2cc(-c3cc4c(cc3F)C(=O)NCC4)c(N)nc2F)cc1CN1CCC(OC)CC1` [I-519, 6-(2-amino-6-fluoro-5-(4-methoxy-3-((4-methoxypiperidin-1-yl)methyl)phenyl)pyridin-3-yl)-7-fluoro-3,4-dihydroisoquinolin-1(2H)-one]: the IC50 fell in the range of 11 to 100 nM.

Consider `CC(C)N1CCN(c2ccc(-c3cc(-c4ccc5c(=O)[nH]c(N(C)C)nc5c4)c(N)nc3F)cc2)CC1` [I-420, 7-(2-amino-6-fluoro-5-(4-(4-isopropylpiperazin-1-yl)phenyl)pyridin-3-yl)-2-(dimethylamino)quinazolin-4(3H)-one], for which the IC50 was in the range of 101 to 1000 nM.

With `Nc1nc(F)c(-c2ccc(C3=CCOCC3)cc2CO)cc1-c1cc2c(cc1F)C(=O)NCC2` [I-528, 6-(2-amino-5-(4-(3,6-dihydro-2H-pyran-4-yl)-2-(hydroxymethyl)phenyl)-6-fluoropyridin-3-yl)-7-fluoro-3,4-dihydroisoquinolin-1(2H)-one], the IC50 lay in the range of 101 to 1000 nM.

As for `CN(C)Cc1cc(-c2cc(-c3cc4c(cc3F)C(=O)NCC4)c(N)nc2F)ccc1OCCCC(F)F` [I-525, 6-(2-amino-5-(4-(4,4-difluorobutoxy)-3-((dimethylamino)methyl)phenyl)-6-fluoropyridin-3-yl)-7-fluoro-3,4-dihydroisoquinolin-1(2H)-one], the IC50 was 11 to 100 nM.

For `Cc1c[nH]c(=O)c2ccc(-c3cc(-c4ccc([C@]56C[C@H]5CN(C)C6)cc4)c(F)nc3N)cc12` [I-471, 6-(2-amino-6-fluoro-5-(4-((1S,5R)-3-methyl-3-azabicyclo[3.1.0]hexan-1-yl)phenyl)pyridin-3-yl)-4-methylisoquinolin-1(2H)-one], the IC50 lay within 0.1 to 10 nM.

For the compound `CC(C)N1CCN(c2ccc(-c3cc(-c4cc(F)c5c(=O)[nH]cc(F)c5c4)c(N)nc3F)cc2)CC1` [I-482, 6-(2-amino-6-fluoro-5-(4-(4-isopropylpiperazin-1-yl)phenyl)pyridin-3-yl)-4,8-difluoroisoquinolin-1(2H)-one], the IC50 lay within 0.1 to 10 nM.

In the case of `Cc1[nH]c(=O)c2c(F)cc(-c3cc(-c4ccc(C5CCOCC5)c(CN(C)C)c4)c(F)nc3N)cc2c1F` [I-535, 6-(2-amino-5-(3-((dimethylamino)methyl)-4-(tetrahydro-2H-pyran-4-yl)phenyl)-6-fluoropyridin-3-yl)-4,8-difluoro-3-methylisoquinolin-1(2H)-one], the IC50 fell in the range of 11 to 100 nM.

As to `CC(=O)N1CCC(Oc2ccc(-c3cc(-c4cc5c(cc4F)C(=O)NCC5)c(N)nc3F)cc2CN(C)C)CC1` [I-569, 6-(5-(4-((1-acetylpiperidin-4-yl)oxy)-3-((dimethylamino)methyl)phenyl)-2-amino-6-fluoropyridin-3-yl)-7-fluoro-3,4-dihydroisoquinolin-1(2H)-one], the IC50 lay within 11 to 100 nM.

These data come from patent US20240343704A1, “HALO-SUBSTITUTED AMINO PYRIDINE COMPOUNDS AS INHIBITORS OF THE HAEMATOPOIETIC PROGENITOR KINASE 1 (HPK1)” (priority 2021, published 2024).
